Reference: patent publication US20020198510A1, “Method for nasal application of a medicinal substance” (priority 2001, published 2002)
“Also recorded” adds a separate entry of the source. Read-outs that look alike come from different tables or passages of the source.

Columns and labels:
[1] = Evans Blue Dye distribution after administration into the nose of mice; type: in vivo; parameters: key to Dye in Stomach / Dye in Lung: -: no dye is present; traces: minimal amounts are present when examined with the unaided eye but that do not clearly show on photographs; yes: dye is clearly visible; +: dye is clearly visible; ++: heavy dye presence; conditions: for Dye in Larynx / Dye in Nasal Cavity / Dye in Nose Skin / Dye in Intestine / Dye in Oral Cavity / Dye in Stomach / Dye in Esophagus Lower / Dye in Esophagus Upper / Dye in Trachea Lower / Dye in Trachea Upper / Dye in Lung: 60 min to sacrifice
Experimental: (§1) To show the distribution of liquid administered through the nose, Evans Blue Dye (0.3%) was administered through a micropipette tip into the nose of mice and chinchillas at various doses, at various levels of sedation or anesthesia, and with the animals in various positions.

[2] = parameters: species or system chinchillas; conditions: in vivo
Experimental: as §1

[3] = Dye 10 μl single dose, Supine/Supine, anesthesia 200 μl (heavy)
[4] = Dye 10 μl single dose, Upright/Not held, 0 μl (Alert)
[5] = Dye 10 μl single dose, Upright/Not held, anesthesia 200 μl (heavy)
[6] = Dye 20 μl single dose, Supine/Supine, anesthesia 200 μl (heavy)
[7] = Dye 20 μl single dose, Upright/Not held, anesthesia 200 μl (heavy)
[8] = Dye 20 μl, 2 μl/nare at 2 min interval, Supine/Supine, anesthesia 200 μl (heavy)
[9] = Dye 20 μl, 2 μl/nare at 5 min interval, Supine/Supine, anesthesia 200 μl (heavy)
[10] = Dye 20 μl, 2 μl/nare at t = 0, 2, 7, 9 and 11 min, Supine/Supine, anesthesia 200 μl (heavy)
[11] = Dye 30 μl single dose, Prone/Not held, 0 μl (Alert)
[12] = Dye 30 μl single dose, Supine/Supine, anesthesia 200 μl (heavy)
[13] = Dye 30 μl single dose, Upright/Not held, 0 μl (Alert)
[14] = Dye 30 μl single dose, Upright/Not held, anesthesia 120 μl (Mod)
[15] = Dye 30 μl single dose, Upright/Not held, anesthesia 200 μl (heavy)
[16] = Dye 30 μl, 1 drop/5 sec interval, Upright/Not held, anesthesia 200 μl (heavy)
[17] = Dye 30 μl, 2 μl/nare at 5 min interval, Supine/Supine, anesthesia 200 μl (Mod*)
[18] = Dye 30 μl, 2 μl/nare at 5 min interval, Supine/Supine, anesthesia 200 μl (heavy)
[19] = Dye 30 μl, 2 μl/nare at 5 min interval, Supine/Supine, anesthesia 350 μl (heavy)
[20] = Dye 30 μl, 2 μl/nare at 5 min interval, Supine/Supine, anesthesia 400 μl (heavy)
[21] = Dye 30 μl, 5 μl/nare at 10 min interval, Supine/Supine, anesthesia 200 μl (heavy)
[22] = Dye 40 μl single dose, Upright/Not held, anesthesia 200 μl (heavy)
[23] = Dye 40 μl, 2 μl/nare at 5 min interval, Supine/Supine, anesthesia 200 μl (heavy)
[24] = Dye 50 μl single dose, Upright/Not held, 0 μl (Alert)
[25] = Dye 50 μl single dose, Upright/Not held, anesthesia 120 μl (Mod)
[26] = Dye 50 μl single dose, Upright/Not held, anesthesia 200 μl (heavy)
[27] = Dye 50 μl, 5 μl/nare at 30 sec interval, Upright/Not held, anesthesia 120 μl (Mod)

Dye in Larynx [1, 3]: Yes | Dye in Nasal Cavity [1, 3]: Yes | Dye in Nose Skin [1, 3]: Yes | Dye in Intestine [1, 4]: Yes | Dye in Larynx [1, 4]: Yes | Dye in Nasal Cavity [1, 4]: Yes | Dye in Oral Cavity [1, 4]: Yes | Dye in Stomach [1, 4]: + and Traces | Dye in Esophagus Lower [1, 5]: Traces; also recorded: Yes/Yes | Dye in Esophagus Upper [1, 5]: Traces/; also recorded: Yes/Yes | Dye in Larynx [1, 5]: Yes | Dye in Nasal Cavity [1, 5]: Yes | Dye in Nose Skin [1, 5]: Yes | Dye in Oral Cavity [1, 5]: Yes | Dye in Stomach [1, 5]: Traces and + | Dye in Trachea Lower [1, 5]: Traces | Dye in Trachea Upper [1, 5]: Traces/ | Dye in Esophagus Upper [1, 6]: Traces | Dye in Larynx [1, 6]: Yes | Dye in Nasal Cavity [1, 6]: Yes | Dye in Nose Skin [1, 6]: Yes | Dye in Oral Cavity [1, 6]: Yes | Dye in Trachea Lower [1, 6]: Traces | Dye in Trachea Upper [1, 6]: Traces/ | Dye in Esophagus Lower [1, 7]: Yes/Yes | Dye in Esophagus Upper [1, 7]: Yes/Yes | Dye in Larynx [1, 7]: Yes | Dye in Nasal Cavity [1, 7]: Yes | Dye in Nose Skin [1, 7]: Yes | Dye in Oral Cavity [1, 7]: Yes | Dye in Stomach [1, 7]: + | Dye in Esophagus Lower [1, 8]: Yes/Yes | Dye in Esophagus Upper [1, 8]: Yes/Yes | Dye in Larynx [1, 8]: Yes | Dye in Nasal Cavity [1, 8]: Yes | Dye in Nose Skin [1, 8]: Yes | Dye in Oral Cavity [1, 8]: Yes | Dye in Stomach [1, 8]: + | Dye in Esophagus Upper [1, 9]: Yes | Dye in Larynx [1, 9]: Yes | Dye in Nasal Cavity [1, 9]: Yes | Dye in Nose Skin [1, 9]: Yes | Dye in Oral Cavity [1, 9]: Yes | Dye in Larynx [1, 10]: Yes | Dye in Nasal Cavity [1, 10]: Yes | Dye in Nose Skin [1, 10]: Yes | Dye in Intestine [1, 11]: Yes | Dye in Larynx [1, 11]: Traces | Dye in Nasal Cavity [1, 11]: Yes | Dye in Oral Cavity [1, 11]: Traces | Dye in Stomach [1, 11]: ++ and + | Dye in Esophagus Lower [1, 12]: Yes/Yes | Dye in Esophagus Upper [1, 12]: Yes/Yes | Dye in Larynx [1, 12]: Yes | Dye in Nasal Cavity [1, 12]: Yes | Dye in Nose Skin [1, 12]: Yes | Dye in Oral Cavity [1, 12]: Yes | Dye in Trachea Lower [1, 12]: Yes/Yes | Dye in Trachea Upper [1, 12]: Yes/Yes | Dye in Intestine [1, 13]: Yes | Dye in Larynx [1, 13]: Yes | Dye in Nasal Cavity [1, 13]: Yes | Dye in Nose Skin [1, 13]: Yes | Dye in Oral Cavity [1, 13]: Yes | Dye in Stomach [1, 13]: ++ and + | Dye in Esophagus Lower [1, 14]: Yes/Yes | Dye in Esophagus Upper [1, 14]: Yes/Yes | Dye in Larynx [1, 14]: Yes | Dye in Lung [1, 14]: Traces | Dye in Nasal Cavity [1, 14]: Yes | Dye in Nose Skin [1, 14]: Yes | Dye in Oral Cavity [1, 14]: Yes | Dye in Stomach [1, 14]: ++ and + | Dye in Trachea Lower [1, 14]: Yes/Yes | Dye in Trachea Upper [1, 14]: Yes/Yes | Dye in Esophagus Lower [1, 15]: Yes/Yes | Dye in Esophagus Upper [1, 15]: Yes/Yes | Dye in Larynx [1, 15]: Yes | Dye in Lung [1, 15]: + | Dye in Nasal Cavity [1, 15]: Yes | Dye in Nose Skin [1, 15]: Yes | Dye in Oral Cavity [1, 15]: Yes | Dye in Trachea Lower [1, 15]: Yes/Yes | Dye in Trachea Upper [1, 15]: Yes/Yes | Dye in Esophagus Lower [1, 16]: Yes/Yes | Dye in Esophagus Upper [1, 16]: Yes/Yes | Dye in Larynx [1, 16]: Yes | Dye in Nasal Cavity [1, 16]: Yes | Dye in Nose Skin [1, 16]: Yes | Dye in Oral Cavity [1, 16]: Yes | Dye in Stomach [1, 16]: + | Dye in Esophagus Lower [1, 17]: Yes/Yes | Dye in Esophagus Upper [1, 17]: Yes/Yes | Dye in Larynx [1, 17]: Yes | Dye in Nasal Cavity [1, 17]: Yes | Dye in Nose Skin [1, 17]: Yes | Dye in Oral Cavity [1, 17]: Yes | Dye in Stomach [1, 17]: + | Dye in Esophagus Upper [1, 18]: Traces | Dye in Larynx [1, 18]: Yes | Dye in Nasal Cavity [1, 18]: Yes | Dye in Nose Skin [1, 18]: Yes | Dye in Oral Cavity [1, 18]: Yes | Dye in Esophagus Upper [1, 19]: Traces | Dye in Larynx [1, 19]: Yes | Dye in Nasal Cavity [1, 19]: Yes | Dye in Nose Skin [1, 19]: Yes | Dye in Oral Cavity [1, 19]: Yes | Dye in Trachea Upper [1, 19]: Traces | Dye in Larynx [1, 20]: Yes | Dye in Nasal Cavity [1, 20]: Yes | Dye in Nose Skin [1, 20]: Yes | Dye in Oral Cavity [1, 20]: Yes | Dye in Esophagus Lower [1, 21]: Yes/Yes | Dye in Esophagus Upper [1, 21]: Yes/Yes | Dye in Larynx [1, 21]: Yes | Dye in Lung [1, 21]: + and Traces | Dye in Nasal Cavity [1, 21]: Yes | Dye in Nose Skin [1, 21]: Yes | Dye in Stomach [1, 21]: + | Dye in Trachea Lower [1, 21]: Yes/Yes | Dye in Trachea Upper [1, 21]: Yes/Yes | Dye in Esophagus Lower [1, 22]: Yes/Yes | Dye in Esophagus Upper [1, 22]: Yes/Yes | Dye in Intestine [1, 22]: Yes | Dye in Larynx [1, 22]: Yes | Dye in Lung [1, 22]: + | Dye in Nasal Cavity [1, 22]: Yes | Dye in Nose Skin [1, 22]: Yes | Dye in Oral Cavity [1, 22]: Yes | Dye in Stomach [1, 22]: + | Dye in Trachea Lower [1, 22]: Yes/Yes | Dye in Trachea Upper [1, 22]: Yes/Yes | Dye in Esophagus Lower [1, 23]: Yes/Yes | Dye in Esophagus Upper [1, 23]: Yes/Yes | Dye in Larynx [1, 23]: Yes | Dye in Nasal Cavity [1, 23]: Yes | Dye in Nose Skin [1, 23]: Yes | Dye in Oral Cavity [1, 23]: Yes | Dye in Stomach [1, 23]: ++ | Dye in Esophagus Lower [1, 24]: Traces | Dye in Esophagus Upper [1, 24]: Traces/ | Dye in Intestine [1, 24]: Yes | Dye in Larynx [1, 24]: Yes | Dye in Nasal Cavity [1, 24]: Yes | Dye in Nose Skin [1, 24]: Yes | Dye in Oral Cavity [1, 24]: Yes | Dye in Stomach [1, 24]: ++ and + | Dye in Esophagus Lower [1, 25]: Yes/Yes | Dye in Esophagus Upper [1, 25]: Yes/Yes | Dye in Larynx [1, 25]: Yes | Dye in Nasal Cavity [1, 25]: Yes | Dye in Nose Skin [1, 25]: Yes | Dye in Oral Cavity [1, 25]: Yes | Dye in Stomach [1, 25]: ++ | Dye in Trachea Lower [1, 25]: Yes/Yes; also recorded: Traces | Dye in Trachea Upper [1, 25]: Yes/Yes and Yes/ | Dye in Esophagus Lower [1, 26]: Yes/Yes | Dye in Esophagus Upper [1, 26]: Yes/Yes | Dye in Larynx [1, 26]: Yes | Dye in Lung [1, 26]: + and ++ | Dye in Nasal Cavity [1, 26]: Yes | Dye in Nose Skin [1, 26]: Yes | Dye in Oral Cavity [1, 26]: Yes | Dye in Stomach [1, 26]: + | Dye in Trachea Lower [1, 26]: Yes/Yes | Dye in Trachea Upper [1, 26]: Yes/Yes | Dye in Esophagus Lower [1, 27]: Yes/Yes | Dye in Esophagus Upper [1, 27]: Yes/Yes | Dye in Larynx [1, 27]: Yes | Dye in Nasal Cavity [1, 27]: Yes | Dye in Nose Skin [1, 27]: Yes | Dye in Oral Cavity [1, 27]: Yes | Dye in Stomach [1, 27]: + | Dye retention in nasal passages and sinuses by position ([1]; mice, prone versus supine position): the converse is true for mice | Dye retention in nasal passages and sinuses by alertness ([1]; mouse, alert versus anesthetized): an anesthetized state is preferred
Compound: Cc1cc(-c2ccc(/N=N/c3ccc4c(S(=O)(=O)[O-])cc(S(=O)(=O)[O-])c(N)c4c3O)c(C)c2)ccc1/N=N/c1ccc2c(S(=O)(=O)[O-])cc(S(=O)(=O)[O-])c(N)c2c1O.[Na+].[Na+].[Na+].[Na+] [Dye, Evans Blue Dye]
Dye in the stomach ([1]; 5 μl and 2 μl increments (Table 8)): reduced dye in the stomach at lower incremental doses than larger incremental doses | Dye reaching stomach and esophagus ([1]; optimal divided dose conditions for the mouse (Table 9)): essentially no dye reached the stomach and very little dye reached the esophagus | Dye retention in nasal passages and sinus cavities ([1]; series of low doses versus a single larger dose): more material can be retained in the nasal passages and sinus cavities than when a single larger dose is used | Dye retention in nasal passages and sinuses versus loss ([1]; when a lower dose is used): more dye is retained in the nasal passages and sinuses and less dye is lost to the esophagus, stomach, intestines and lungs | Dye retention in nasal passages and sinuses by alertness [2]: more dye is retained in the nasal passages and sinuses when administered to an alert chinchilla | Dye retention in nasal passages and sinuses by position [2]: more dye is retained in the nasal passages and sinuses in the chinchilla, when the dye is administered in the prone position than when administered in the supine position
